The target of the first experiment is T1, ΔF508-CFTR (Homo sapiens, UniProt P13569, DEL508-508).
T1 construct: expressed in transfected cells
T1 sequence (P13569 with tags, fused parts or gaps DEL508-508): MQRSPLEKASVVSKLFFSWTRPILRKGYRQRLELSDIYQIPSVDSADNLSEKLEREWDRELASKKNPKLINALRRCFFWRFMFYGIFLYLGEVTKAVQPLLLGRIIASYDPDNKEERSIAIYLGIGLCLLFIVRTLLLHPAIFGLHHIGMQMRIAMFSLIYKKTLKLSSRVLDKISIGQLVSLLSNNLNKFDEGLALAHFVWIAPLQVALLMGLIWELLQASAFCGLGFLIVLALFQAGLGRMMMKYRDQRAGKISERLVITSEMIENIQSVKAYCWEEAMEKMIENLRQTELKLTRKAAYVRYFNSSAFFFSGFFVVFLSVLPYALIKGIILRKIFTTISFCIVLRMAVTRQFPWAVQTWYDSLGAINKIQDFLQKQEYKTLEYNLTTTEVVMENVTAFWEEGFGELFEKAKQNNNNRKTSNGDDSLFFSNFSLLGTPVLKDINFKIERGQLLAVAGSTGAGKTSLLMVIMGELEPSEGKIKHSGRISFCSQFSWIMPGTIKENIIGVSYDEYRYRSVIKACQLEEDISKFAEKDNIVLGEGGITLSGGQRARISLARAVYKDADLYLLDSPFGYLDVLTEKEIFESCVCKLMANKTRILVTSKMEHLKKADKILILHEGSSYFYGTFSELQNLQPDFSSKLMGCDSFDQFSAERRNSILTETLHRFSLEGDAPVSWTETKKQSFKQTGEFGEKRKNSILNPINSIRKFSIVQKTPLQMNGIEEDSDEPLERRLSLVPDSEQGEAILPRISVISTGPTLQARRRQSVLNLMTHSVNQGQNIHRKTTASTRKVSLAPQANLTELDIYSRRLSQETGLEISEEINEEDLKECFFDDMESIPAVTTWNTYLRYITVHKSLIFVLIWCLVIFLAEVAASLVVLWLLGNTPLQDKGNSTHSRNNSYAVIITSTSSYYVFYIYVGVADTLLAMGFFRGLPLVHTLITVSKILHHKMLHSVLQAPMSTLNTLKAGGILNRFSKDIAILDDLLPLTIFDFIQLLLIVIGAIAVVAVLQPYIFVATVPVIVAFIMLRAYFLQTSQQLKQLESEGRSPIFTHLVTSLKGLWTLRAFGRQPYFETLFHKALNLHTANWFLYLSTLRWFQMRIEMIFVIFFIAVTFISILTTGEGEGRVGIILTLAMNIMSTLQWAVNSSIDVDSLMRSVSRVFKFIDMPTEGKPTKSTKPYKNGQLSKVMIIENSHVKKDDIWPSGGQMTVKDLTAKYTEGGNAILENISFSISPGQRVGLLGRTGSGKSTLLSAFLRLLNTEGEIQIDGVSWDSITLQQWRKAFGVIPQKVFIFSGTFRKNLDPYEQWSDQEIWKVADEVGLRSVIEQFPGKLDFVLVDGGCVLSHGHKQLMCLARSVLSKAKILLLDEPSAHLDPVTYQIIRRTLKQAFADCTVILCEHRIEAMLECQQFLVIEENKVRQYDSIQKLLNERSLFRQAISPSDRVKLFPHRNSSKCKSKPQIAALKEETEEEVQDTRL
In words: Membrane potential optical assay (FRET voltage-sensor dyes, VIPR), identification of potentiator compounds. As to conditions: Table 3; assay not given. The class given is cell-based. In a few lines:
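NIH3T3 mouse fibroblasts stably expressing ΔF508-CFTR, cultured 24 h at 27 °C, were loaded with FRET voltage dyes CC2-DMPE and DiSBAC2(3). Double-addition format: first addition of Cl⁻-free (gluconate) medium with or without compound; membrane-potential change read as fluorescence on VIPR II.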
As for `CC(C)(C)c1c[nH]c2cc(NC(=O)c3c[nH]c4ccccc4c3=O)c(C(F)(F)F)cc12` [Compound 508, 4-oxo-N-[3-tert-butyl-5-(trifluoromethyl)-1H-indol-6-yl]-1H-quinoline-3-carboxamide], the EC50 is under 10 µM.
The same measure, in the same setting: the figure for `CCOc1ccccc1-c1ccccc1NC(=O)c1c[nH]c2ccccc2c1=O` [Compound 344, N-[2-(2-ethoxyphenyl)phenyl]-4-oxo-1H-quinoline-3-carboxamide] is under 10 µM.

The experiment is the same for the next values; noted with them: Table 3; assay not given; read-out: % Activity (% Efficacy, relative efficacy).
For `CC(C)(C)c1c[nH]c2cc(NC(=O)c3c[nH]c4ccccc4c3=O)c(C(F)(F)F)cc12` [Compound 508, 4-oxo-N-[3-tert-butyl-5-(trifluoromethyl)-1H-indol-6-yl]-1H-quinoline-3-carboxamide], the Emax was in the range of 25 to 100%.
On the same count and under the same terms, the figure for `O=C(Nc1cc(O)c(C(F)(F)F)cc1F)c1c[nH]c2ccccc2c1=O` [Compound 501, N-[2-fluoro-5-hydroxy-4-(trifluoromethyl)phenyl]-4-oxo-1H-quinoline-3-carboxamide] is 25 to 100%; for `COC(=O)NCC(C)(C)c1ccc(NC(=O)c2c[nH]c3ccccc3c2=O)cc1` [Compound 323, [2-Methyl-2-[4-[(4-oxo-1H-quinolin-3-yl)carbonylamino]phenyl]-propyl]aminoformic acid methyl ester] it is 25 to 100%.
Same read-out and setting: the figure for `Cc1ccc(C)c(NC(=O)c2c[nH]c3ccccc3c2=O)c1` [Compound 434, N-(2,5-dimethylphenyl)-4-oxo-1H-quinoline-3-carboxamide] is 25 to 100%.
The same measure, in the same setting: to `CC1CCN(c2ccccc2NC(=O)c2c[nH]c3ccccc3c2=O)CC1` [Compound 372, N-[2-(4-methyl-1-piperidyl)phenyl]-4-oxo-1H-quinoline-3-carboxamide] belongs 25 to 100%.
`Cc1ccc2[nH]cc(C(=O)Nc3ccc(N4CCC(C)(C)C4)cc3C(F)(F)F)c(=O)c2c1` [Compound 489, N-[4-(3,3-dimethylpyrrolidin-1-yl)-2-(trifluoromethyl)phenyl]-6-methyl-4-oxo-1H-quinoline-3-carboxamide]: the Emax lay within 25 to 100%.
On the same count and under the same terms, to `CCCc1ccc(NC(=O)OC)cc1NC(=O)c1c[nH]c2ccccc2c1=O` [Compound 471, [3-[(4-oxo-1H-quinolin-3-yl)carbonylamino]-4-propyl-phenyl]aminoformic acid methyl ester] belongs 25 to 100%.
The same measure, in the same setting: the figure for `O=C(Nc1cccc(-c2cccs2)c1)c1c[nH]c2ccccc2c1=O` [Compound 549, 4-oxo-N-[3-(2-thienyl)phenyl]-1H-quinoline-3-carboxamide] is 25 to 100%; for `CC(C)(C)c1ccc(NC(=O)c2c[nH]c3ccccc3c2=O)cc1N` [Compound 271, N-(3-amino-4-tert-butyl-phenyl)-4-oxo-1H-quinoline-3-carboxamide] it is 25 to 100%.
For `N#Cc1cccc(-c2ccccc2NC(=O)c2c[nH]c3ccccc3c2=O)c1` [Compound 83, N-[2-(3-cyanophenyl)phenyl]-4-oxo-1H-quinoline-3-carboxamide], the Emax was in the range of 25 to 100%.
On the same count and under the same terms, to `O=C(Nc1cccc(OC(F)(F)F)c1)c1c[nH]c2ccccc2c1=O` [Compound 62, 4-oxo-N-[3-(trifluoromethoxy)phenyl]-1H-quinoline-3-carboxamide] belongs 25 to 100%.
The same measure, in the same setting: the figure for `O=C(Nc1cc2[nH]ccc2cc1-c1ccccc1)c1c[nH]c2ccccc2c1=O` [Compound 158, 4-Oxo-N-(5-phenyl-1H-indol-6-yl)-1H-quinoline-3-carboxamide] is 25 to 100%; for `O=C(Nc1cc(Cl)cc(NS(=O)(=O)CCN2CCCCC2)c1)c1c[nH]c2ccccc2c1=O` [Compound 133, N-[3-chloro-5-[2-(1-piperidyl)ethylsulfonylamino]phenyl]-4-oxo-1H-quinoline-3-carboxamide] it is 25 to 100%.
Still for that read-out and setting: to `COc1ccc(NC(C)=O)cc1NC(=O)c1c[nH]c2ccccc2c1=O` [Compound 250, N-(5-acetylamino-2-methoxy-phenyl)-4-oxo-1H-quinoline-3-carboxamide] belongs under 25%; to `O=C(Nc1ccc2cc[nH]c2c1)c1cnc2ccc(F)cc2c1O` [Compound 345, 6-fluoro-4-hydroxy-N-(1H-indol-6-yl)quinoline-3-carboxamide], 25 to 100%.
As to `CS(=O)(=O)c1ccc(-c2ccccc2NC(=O)c2c[nH]c3ccccc3c2=O)cc1` [Compound 326, N-[2-(4-methylsulfonylphenyl)phenyl]-4-oxo-1H-quinoline-3-carboxamide], the Emax fell in the range of 25 to 100%.
Take `CNc1cccc2[nH]cc(C(=O)Nc3cc(O)c(C(C)(C)C)cc3C(C)(C)C)c(=O)c12` [Compound 542, N-(5-hydroxy-2,4-ditert-butyl-phenyl)-5-methylamino-4-oxo-1H-quinoline-3-carboxamide]: the Emax was over 100%.
Still for that read-out and setting: to `CCc1ccc(NC(=O)c2c[nH]c3ccccc3c2=O)cc1NC(C)=O` [Compound 149, N-(3-acetylamino-4-ethyl-phenyl)-4-oxo-1H-quinoline-3-carboxamide] belongs 25 to 100%; to `CC(C)c1ccc(-c2ccccc2NC(=O)c2c[nH]c3ccccc3c2=O)cc1` [Compound 432, N-[2-(4-isopropylphenyl)phenyl]-4-oxo-1H-quinoline-3-carboxamide], 25 to 100%; to `CC(C)(C)c1cc(C#N)c(NC(=O)c2c[nH]c3ccccc3c2=O)cc1O` [Compound 476, N-(4-tert-Butyl-2-cyano-5-hydroxyphenyl)-1,4-dihydro-4-oxoquinoline-3-carboxamide], 25 to 100%.
On the same count and under the same terms, to `O=C(Nc1ccc2c(c1)CCCC2)c1c[nH]c2ccccc2c1=O` [Compound 375, 1,4-dihydro-N-(1,2,3,4-tetrahydronaphthalen-6-yl)-4-oxoquinoline-3-carboxamide] belongs 25 to 100%; to `CC1(c2cc(F)c(NC(=O)c3c[nH]c4ccccc4c3=O)cc2O)CCCCC1` [Compound 92, N-[2-fluoro-5-hydroxy-4-(1-methylcyclohexyl)-phenyl]-4-oxo-1H-quinoline-3-carboxamide], 25 to 100%.
In the case of `CN(c1ccc(F)cc1)S(=O)(=O)c1ccc2[nH]cc(C(=O)Nc3cc(O)c(C(C)(C)C)cc3C(C)(C)C)c(=O)c2c1` [Compound 137, 6-[(4-fluorophenyl)-methyl-sulfamoyl]-N-(5-hydroxy-2,4-ditert-butyl-phenyl)-4-oxo-1H-quinoline-3-carboxamide], the Emax was in the range of 25 to 100%.
Same read-out and setting: to `Cc1cccc2[nH]cc(C(=O)Nc3ccc(N4[C@@H](C)CC[C@@H]4C)cc3C(F)(F)F)c(=O)c12` [Compound 516, N-(4-((2S,5S)-2,5-dimethylpyrrolidin-1-yl)-2-(trifluoromethyl)phenyl)-5-methyl-4-oxo-1,4-dihydroquinoline-3-carboxamide] belongs 25 to 100%; to `Cc1cccc2[nH]cc(C(=O)Nc3ccc(OC(C)C)c(O)c3)c(=O)c12` [Compound 701, N-(3-hydroxy-4-isopropoxy-phenyl)-5-methyl-4-oxo-1H-quinoline-3-carboxamide], 25 to 100%; to `CCc1cc(C#N)ccc1NC(=O)c1c[nH]c2ccccc2c1=O` [Compound 451, N-(4-cyano-2-ethyl-phenyl)-4-oxo-1H-quinoline-3-carboxamide], 25 to 100%.
Same read-out and setting: to `O=C(Nc1ccc2c(c1)S(=O)(=O)C=C2)c1c[nH]c2ccccc2c1=O` [Compound 446, N-(1,1-dioxobenzothiophen-6-yl)-4-oxo-1H-quinoline-3-carboxamide] belongs under 25%; to `O=C(Nc1ccccc1-c1ccccc1Oc1ccccc1)c1c[nH]c2ccccc2c1=O` [Compound 247, 4-oxo-N-[2-(2-phenoxyphenyl)phenyl]-1H-quinoline-3-carboxamide], 25 to 100%; to `CC(O)c1ccc(NC(=O)c2c[nH]c3ccccc3c2=O)cc1` (centres unmarked) [Compound 450, N-[4-(1-hydroxyethyl)phenyl]-4-oxo-1H-quinoline-3-carboxamide], 25 to 100%.
Same read-out and setting: to `COC(=O)c1cccc(-c2cc(C(C)(C)C)c(O)cc2NC(=O)c2c[nH]c3ccccc3c2=O)c1` [Compound 231, 3-[4-hydroxy-2-[(4-oxo-1H-quinolin-3-yl)carbonylamino]-5-tert-butyl-phenyl]benzoic acid methyl ester] belongs 25 to 100%; to `O=C(Nc1ccc(N2CCCC2)cc1C(F)(F)F)c1c[nH]c2ccc(F)cc2c1=O` [Compound 562, 6-fluoro-4-oxo-N-[4-pyrrolidin-1-yl-2-(trifluoromethyl)phenyl]-1H-quinoline-3-carboxamide], 25 to 100%; to `O=C(Nc1ccc(N2CC[C@H](O)C2)cc1C(F)(F)F)c1c[nH]c2ccccc2c1=O` [Compound 655, (S)-N-(4-(3-hydroxypyrrolidin-1-yl)-2-(trifluoromethyl)phenyl)-4-oxo-1,4-dihydroquinoline-3-carboxamide], 25 to 100%.
Take `O=C(Nc1cccc(S(=O)(=O)N2CCCCC2)c1)c1c[nH]c2ccccc2c1=O` [Compound 442, 4-oxo-N-[3-(1-piperidylsulfonyl)phenyl]-1H-quinoline-3-carboxamide]: the Emax was under 25%.
The same measure, in the same setting: the figure for `CCc1ccc(NC)cc1NC(=O)c1c[nH]c2ccccc2c1=O` [Compound 157, N-(2-ethyl-5-methylamino-phenyl)-4-oxo-1H-quinoline-3-carboxamide] is 25 to 100%; for `COC(=O)c1c(NC(=O)c2c[nH]c3ccccc3c2=O)csc1C(C)(C)C` [Compound 690, methyl 4-[(4-oxo-1H-quinolin-3-yl)carbonylamino]-2-tert-butyl-thiophene-3-carboxylate] it is 25 to 100%; for `COc1ccc(C(C)C)cc1-c1ccccc1NC(=O)c1c[nH]c2ccccc2c1=O` [Compound 59, N-[2-(5-isopropyl-2-methoxy-phenyl)phenyl]-4-oxo-1H-quinoline-3-carboxamide] it is over 100%.
Still for that read-out and setting: to `CC(C)(C)c1cc2cc[nH]c2cc1NC(=O)c1c[nH]c2cccc(O)c2c1=O` [Compound 500, 5-hydroxy-4-oxo-N-(5-tert-butyl-1H-indol-6-yl)-1H-quinoline-3-carboxamide] belongs 25 to 100%.
Still for that read-out and setting: the figure for `O=C(Nc1cccc2c1CCCC2)c1c[nH]c2ccccc2c1=O` [Compound 286, 1,4-dihydro-N-(1,2,3,4-tetrahydronaphthalen-5-yl)-4-oxoquinoline-3-carboxamide] is over 100%; for `CCOc1ccccc1-c1ccccc1NC(=O)c1c[nH]c2ccccc2c1=O` [Compound 344, N-[2-(2-ethoxyphenyl)phenyl]-4-oxo-1H-quinoline-3-carboxamide] it is 25 to 100%.

A word on the EC50: it is the concentration that produces a half-maximal response.
